Experimental data: patent publication US10730863B2, “Bridged bicyclic compounds as farnesoid X receptor modulators” (BRISTOL-MYERS SQUIBB COMPANY, priority 2017, dated 2020)

Molecular target: FXR (Homo sapiens (Human), UniProt Q96RI1)
Experiment: FXR EC50 (FXR agonist activity reported with each example)
Type: cell-based

Sequence of FXR (Q96RI1 262-486): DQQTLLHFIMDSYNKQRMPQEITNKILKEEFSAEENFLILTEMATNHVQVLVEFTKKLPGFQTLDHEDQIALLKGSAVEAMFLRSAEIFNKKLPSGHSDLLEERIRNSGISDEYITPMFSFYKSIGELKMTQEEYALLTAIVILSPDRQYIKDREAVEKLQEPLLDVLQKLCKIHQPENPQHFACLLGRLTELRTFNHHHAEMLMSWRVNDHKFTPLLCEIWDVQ

O=C(O)c1cccc(OCC23CCC(OCc4c(-c5c(Cl)cccc5Cl)noc4C4CC4)(CC2)CC3)n1 [Example 110, 6-((4-((5-cyclopropyl-3-(2,6-dichlorophenyl)isoxazol-4-yl)methoxy)bicyclo[2.2.2]octan-1-yl)methoxy)picolinic acid]
EC50: 52 nM

O=C(O)c1cc(C(F)(F)F)cc2nc(C34CCC(OCc5c(-c6c(Cl)cncc6Cl)noc5C5CC5)(CC3)CC4)sc12 [Example 434, 2-(4-((5-cyclopropyl-3-(3,5-dichloropyridin-4-yl)isoxazol-4-yl)methoxy)bicyclo[2.2.2]octan-1-yl)-5-(trifluoromethyl)benzo[d]thiazole-7-carboxylic acid]
EC50: 18 nM

Clc1cccc(Cl)c1-c1noc(C2CC2)c1COC12CCC(COc3cccc(-c4nn[nH]n4)c3)(CC1)CC2 [Example 89, 4-((4-((3-(2H-tetrazol-5-yl)phenoxy)methyl)bicyclo[2.2.2]octan-1-yloxy)methyl)-5-cyclopropyl-3-(2,6-dichlorophenyl)isoxazole]
EC50: 120 nM

O=C(O)c1cc(C(F)(F)F)cc2nc(C34CCC(/C=C/c5c(-c6c(Cl)cncc6Cl)noc5C5CC5)(CC3)CC4)sc12 [Example 507, (E)-2-(4-(2-(5-cyclopropyl-3-(3,5-dichloropyridin-4-yl)isoxazol-4-yl)vinyl)bicyclo[2.2.2]octan-1-yl)-5-(trifluoromethyl)benzo[d]thiazole-7-carboxylic acid]
EC50: 20 nM

O=C(O)c1cccc2c1CCN(C(=O)C13CCC(OCc4c(-c5c(Cl)cccc5Cl)noc4C4CC4)(CC1)CC3)C2 [Example 139, 2-(4-((5-cyclopropyl-3-(2,6-dichlorophenyl)isoxazol-4-yl)methoxy)bicyclo[2.2.2]octane-1-carbonyl)-1,2,3,4-tetrahydroisoquinoline-5-carboxylic acid]
EC50: 1400 nM

O=C(O)c1ncc(OCC23CCC(OCc4c(-c5c(Cl)cncc5Cl)noc4C4CC4)(CC2)CC3)cc1C(F)(F)F [Example 285, 5-((4-((5-cyclopropyl-3-(3,5-dichloropyridin-4-yl)isoxazol-4-yl)methoxy)bicyclo[2.2.2]octan-1-yl)methoxy)-3-(trifluoromethyl)picolinic acid]
EC50: 130 nM

O=C(O)c1ccc(N2CCCC2)c2nc(C34CCC(OCc5c(-c6c(Cl)cncc6Cl)noc5C5CC5)(CC3)CC4)ccc12 [Example 409]
EC50: 81 nM

O=C(O)c1cc(-c2noc(C34CCC(OCc5c(-c6c(Cl)cncc6Cl)noc5C5CC5)(CC3)CC4)n2)ccc1C(F)(F)F [Example 254, 5-(5-(4-((5-cyclopropyl-3-(3,5-dichloropyridin-4-yl)isoxazol-4-yl)methoxy)bicyclo[2.2.2]octan-1-yl)-1,2,4-oxadiazol-3-yl)-2-(trifluoromethyl)benzoic acid]
EC50: 2000 nM

O=C(O)c1cccc(/C=C/C23CCC(OCc4c(-c5ccccc5OC(F)(F)F)noc4C4CC4)(CC2)CC3)c1 [Example 40]
EC50: 100 nM

O=C(O)c1ccc2nc(C(O)C34CCC(OCc5c(-c6c(Cl)cccc6Cl)noc5C5CC5)(CC3)CC4)sc2c1 (stereo not drawn) [Example 124, 2-((4-((5-cyclopropyl-3-(2,6-dichlorophenyl)isoxazol-4-yl)methoxy)bicyclo[2.2.2]octan-1-yl)(hydroxy)methyl)benzo[d]thiazole-6-carboxylic acid]
EC50: 490 nM

Cc1nc(C23CCC(COCc4c(-c5c(Cl)cccc5Cl)noc4C4CC4)(CC2)CC3)sc1C(=O)O [Example 179, 2-(4-(((5-cyclopropyl-3-(2,6-dichlorophenyl)isoxazol-4-yl)methoxy)methyl)bicyclo[2.2.2]octan-1-yl)-4-methylthiazole-5-carboxylic acid]
EC50: 560 nM

Cn1cc(C(=O)O)c2ccc(C34CCC(OCc5c(-c6c(Cl)cccc6Cl)noc5C5CC5)(CC3)CC4)nc21 [Example 135, 6-(4-((5-cyclopropyl-3-(2,6-dichlorophenyl)isoxazol-4-yl)methoxy)bicyclo[2.2.2]octan-1-yl)-1-methyl-1H-pyrrolo[2,3-b]pyridine-3-carboxylic acid]
EC50: 9 nM

O=C(O)c1cc(C(F)(F)F)cc2nc(C34CCC(OCc5c(C(C6CC6)C6CC6)noc5C5CC5)(CC3)CC4)ccc12 [Example 423, 2-(4-((5-cyclopropyl-3-(dicyclopropylmethyl)isoxazol-4-yl)methoxy)bicyclo[2.2.2]octan-1-yl)-7-(trifluoromethyl)quinoline-5-carboxylic acid]
EC50: 67 nM

Cc1cc(C(=O)O)nc2ccc(OCC34CCC(OCc5c(-c6c(Cl)cncc6Cl)noc5C5CC5)(CC3)CC4)cc12 [Example 325]
EC50: 52 nM

O=C(O)c1cccc(-c2noc(C34CCC(COCc5c(-c6c(Cl)cccc6Cl)noc5C5CC5)(CC3)CC4)n2)c1 [Example 151, 3-(5-(4-(((5-cyclopropyl-3-(2,6-dichlorophenyl)isoxazol-4-yl)methoxy)methyl)bicyclo[2.2.2]octan-1-yl)-1,2,4-oxadiazol-3-yl)benzoic acid]
EC50: 150 nM

O=C(O)c1cccc2nc(C34CCC(OCc5c(-c6c(Cl)cccc6Cl)noc5C5CC5)(CC3)CO4)sc12 [Example 454, 2-(4-((5-cyclopropyl-3-(2,6-dichlorophenyl)isoxazol-4-yl)methoxy)-2-oxabicyclo[2.2.2]octan-1-yl)benzo[d]thiazole-7-carboxylic acid]
EC50: 680 nM

O=C(O)c1cccc(OCC23CCC(COCc4c(-c5c(Cl)cccc5Cl)noc4C4CC4)(CC2)CC3)c1 [Example 484, 3-((4-(((5-cyclopropyl-3-(2,6-dichlorophenyl)isoxazol-4-yl)methoxy)methyl)bicyclo[2.2.2]octan-1-yl)methoxy)benzoic acid]
EC50: 200 nM

O=C(O)c1ccnc(OCC23CCC(OCc4c(-c5c(Cl)cccc5Cl)noc4C4CC4)(CC2)CC3)n1 [Example 108, 2-((4-((5-cyclopropyl-3-(2,6-dichlorophenyl)isoxazol-4-yl)methoxy)bicyclo[2.2.2]octan-1-yl)methoxy)pyrimidine-4-carboxylic acid]
EC50: 540 nM

CC(C)Oc1cc(Cl)c2nc(C34CCC(OCc5c(-c6c(Cl)cncc6Cl)noc5C5CC5)(CC3)CC4)ccc2c1C(=O)O [Example 427]
EC50: 5 nM

O=C(O)c1cc(-c2noc(C34CCC(OCc5c(-c6ccccc6OC(F)(F)F)noc5C5CC5)(CC3)CC4)n2)ccn1 [Example 49]
EC50: 1200 nM

O=C(O)c1cccc(OCC23CCC(OCc4c(-c5c(Cl)cccc5Cl)noc4C4CC4)(CC2)CC3)c1F [Example 96, 3-((4-((5-cyclopropyl-3-(2,6-dichlorophenyl)isoxazol-4-yl)methoxy)bicyclo[2.2.2]octan-1-yl)methoxy)-2-fluorobenzoic acid]
EC50: 120 nM

COc1cc(OCC23CCC(OCc4c(-c5c(Cl)cncc5Cl)noc4C4CC4)(CC2)CC3)ncc1C(=O)O [Example 301, 6-((4-((5-cyclopropyl-3-(3,5-dichloropyridin-4-yl)isoxazol-4-yl)methoxy)bicyclo[2.2.2]octan-1-yl)methoxy)-4-methoxynicotinic acid]
EC50: 42 nM

COc1cc(-c2noc(C34CCC(OCc5c(-c6c(Cl)cnn6C)noc5C5CC5)(CC3)CC4)n2)cc(C(=O)O)n1 [Example 275, 4-(5-(4-((3-(4-chloro-1-methyl-1H-pyrazol-5-yl)-5-cyclopropylisoxazol-4-yl)methoxy)bicyclo[2.2.2]octan-1-yl)-1,2,4-oxadiazol-3-yl)-6-methoxypicolinic acid]
EC50: 2500 nM

O=C(O)c1cc(OCC23CCC(OCc4c(-c5ccccc5C(F)(F)F)noc4C4CC4)(CC2)CC3)ccc1F [Example 290]
EC50: 260 nM

N#Cc1ccc(C(=O)O)c2ccc(C34CCC(OCc5c(-c6c(Cl)cncc6Cl)noc5C5CC5)(CC3)CC4)nc12 [Example 384, 8-cyano-2-(4-((5-cyclopropyl-3-(3,5-dichloropyridin-4-yl)isoxazol-4-yl)methoxy)bicyclo[2.2.2]octan-1-yl)quinoline-5-carboxylic acid]
EC50: 820 nM

O=C(O)Cc1ccc(/C=C/C23CCC(OCc4c(-c5c(Cl)cncc5Cl)noc4C4CC4)(CC2)CC3)cc1 [Example 516, (E)-2-(4-(2-(4-((5-cyclopropyl-3-(3,5-dichloropyridin-4-yl)isoxazol-4-yl)methoxy)bicyclo[2.2.2]octan-1-yl)vinyl)phenyl)acetic acid]
EC50: 173 nM

O=C(O)c1cccc(-c2noc(C34CCC(OCc5c(-c6c(Cl)cncc6Cl)noc5C5CC5)(CC3)CC4)n2)n1 [Example 247, 6-(5-(4-((5-cyclopropyl-3-(3,5-dichloropyridin-4-yl)isoxazol-4-yl)methoxy)bicyclo[2.2.2]octan-1-yl)-1,2,4-oxadiazol-3-yl)picolinic acid]
EC50: 580 nM

COc1ccc(-c2noc(C34CCC(OCc5c(-c6c(Cl)cncc6Cl)noc5C5CC5)(CC3)CC4)n2)cc1C(=O)O [Example 69, 5-(5-(4-((5-Cyclopropyl-3-(3,5-dichloropyridin-4-yl)isoxazol-4-yl)methoxy)bicyclo[2.2.2]octan-1-yl)-1,2,4-oxadiazol-3-yl)-2-methoxybenzoic acid]
EC50: 56 nM

O=C(O)c1cc(OCC2COC2)c2cc(OCC34CCC(OCc5c(-c6c(Cl)cncc6Cl)noc5C5CC5)(CC3)CC4)ccc2n1 [Example 360]
EC50: 140 nM

O=C(O)c1sc(OCC23CCC(OCc4c(-c5c(Cl)cncc5Cl)noc4C4CC4)(CC2)CC3)nc1C(F)(F)F [Example 317]
EC50: 210 nM

O=C(O)c1ccc(-c2noc(C34CCC(CNc5c(-c6c(Cl)cccc6Cl)noc5C5CC5)(CC3)CC4)n2)cc1 [Example 167]
EC50: 530 nM

COc1c(F)cc(-c2noc(C34CCC(OCc5c(-c6c(Cl)cncc6Cl)noc5C5CC5)(CC3)CC4)n2)cc1C(=O)O [Example 238, 5-(5-(4-((5-cyclopropyl-3-(3,5-dichloropyridin-4-yl)isoxazol-4-yl)methoxy)bicyclo[2.2.2]octan-1-yl)-1,2,4-oxadiazol-3-yl)-3-fluoro-2-methoxybenzoic acid]
EC50: 21 nM

CC(C)(C(N)=O)c1ccc(C23CCC(/C=C/c4c(-c5ccccc5C(F)(F)F)noc4C4CC4)(CC2)CO3)cc1 [Example 480, (E)-2-(4-(4-(2-(5-cyclopropyl-3-(2-(trifluoromethyl)phenyl)isoxazol-4-yl)vinyl)-2-oxabicyclo[2.2.2]octan-1-yl)phenyl)-2-methylpropanamide]
EC50: 1000 nM
